Assays:
Nalm6 = assay: Cytotoxicity (viable cells) in Nalm6; format: cell-based; conditions: Homo sapiens, NALM-6; Table 1; 48 h; read-out: IC50 in cancer cell lines, Nalm6
Procedure: (§1) The compounds of the present invention were screened initially in leukemic and cervical cancer cell lines (Table 1). […] In cervical cancer cell line HeLa, IC50 was 5 and 2 μM, respectively for SCR116 and SCR132 (FIG. 5A-B).
(§2) Ligase IV specificity of the compounds of the present invention inside the cells were also determined using Ligase IV knock out (KO) cell line N114 compared to the wild type Nalm6 (Table 2, FIGS. 5C, D, E and F). […] Table 1 showing IC50 of SCR7 derivatives in cancer cell lines Nalm6 and HeLa. IC50 was calculated using GraphPad Prism software from the percentage of viable cells following treatment with the compounds at 48 h. Table 2 showing IC50 of SCR116 and SCR132 in a panel of 16 cancer cell lines.

HeLa = assay: Cytotoxicity (viable cells) in HeLa; format: cell-based; conditions: Homo sapiens, HeLa, 48 h, Table 1; 48 h; read-out: IC50 in cancer cell lines, HeLa
Procedure: as §1, §2

rat testicular extracts = assay: Inhibition of end joining of rat testicular extracts (NHEJ); format: biochemical; conditions: 500 μM; rat testicular extract
Procedure: The compounds of the present invention were tested for their effects on inhibition of DNA end joining reactions using rat tissue extracts and purified DNA Ligase IV/XRCC4. Rat testicular extracts were prepared from testes of 4-6 week old male Wistar rats, Rattus norvegicus using ammonium sulphate precipitation method. To determine end joining of cell-free extracts, radiolabeled double-stranded (ds) oligomeric DNA substrate was incubated with rat testicular extract at 25° C. in suitable NHEJ buffer. Extracts were incubated for 30 min with the compounds of Formula I (01-41, 500 μM) as prepared in Example 1, and then radioactive DNA substrate was added to the reaction mixture and incubated for 1 h at 25° C. Reactions were stopped using EDTA, and products were purified using phenol: chloroform extraction and loaded on denaturing polyacrylamide gel. […] Joining efficiency was calculated using the intensity of product bands (150 bp or higher) in individual lanes in Multi Gauge software as compared to control (lanes 2,3). Lane 1 denotes radioactive substrate in absence of protein or inhibitor, while M denotes radiolabeled 50 bp DNA ladder.
(§3) Effects of these compounds on NHEJ and Ligase IV mediated joining were evaluated (FIG. 4A-K). The reactions were terminated by EDTA (10 mM), products were purified using phenol/chloroform, precipitated with chilled ethanol and glycogen, and resolved on 8% denaturing PAGE. The gel was dried, exposed, and signal was detected using phosphor Imager FLA9000 (Fuji, Japan), and quantified in MultiGauge software expressed as Photo Stimulated Luminescence Units (PSLU). Inhibition of end joining was reported at 200 μM and 100 μM, respectively for SCR116 and SCR132 (FIGS. 4A, B, C and D), with >50% inhibition at 200 and 100 μM concentrations, respectively. […] FIG. 4K depict the purification profile of Ligase IV and XRCC4. Further FIGS. 4L-M represent inhibition of end joining catalysed by (FIG. 4L) purified Ligase III/XRCCI in presence of SCR116 and SCR132 (50, 100, 200, 500, 1000 μM) and (FIG. 4M) by purified Ligase I in presence of increasing concentrations of SCR116 and SCR132 (10, 50, 100, 200, 500, 1000 μM).

DNA Ligase IV/XRCC4 = target: T1, DNA Ligase IV/XRCC4 (Homo sapiens, UniProt P49917); assay: Inhibition of end joining by purified DNA Ligase IV/XRCC4; format: biochemical; conditions: 200 μM; purified Ligase IV/XRCC4
T1 construct: made in house; host or cells: bacteria
Procedure: The compounds of Formula I were evaluated for their specific inhibition activity towards enzyme DNA Ligase IV. DNA Ligase IV/XRCC4 was purified from bacteria using Ni-NTA column (FIG. 2A), and used for evaluation of inhibition of end joining of the compounds (01-41) at 200 μM (FIGS. 2B, C and D). The compounds were incubated with purified Ligase IV/XRCC4 in suitable NHEJ buffer at 25° C. for 30 min, followed by addition of radiolabeled DNA, and further incubation for 1 h at 25° C. Products were purified using phenol: chloroform and run on denaturing PAGE.
as §3

[1] = tested on: Ligase IV knock out (KO) cell line N114; conditions: Vartak et al. 2018; cited from earlier work

T1 sequence (P49917 whole entry): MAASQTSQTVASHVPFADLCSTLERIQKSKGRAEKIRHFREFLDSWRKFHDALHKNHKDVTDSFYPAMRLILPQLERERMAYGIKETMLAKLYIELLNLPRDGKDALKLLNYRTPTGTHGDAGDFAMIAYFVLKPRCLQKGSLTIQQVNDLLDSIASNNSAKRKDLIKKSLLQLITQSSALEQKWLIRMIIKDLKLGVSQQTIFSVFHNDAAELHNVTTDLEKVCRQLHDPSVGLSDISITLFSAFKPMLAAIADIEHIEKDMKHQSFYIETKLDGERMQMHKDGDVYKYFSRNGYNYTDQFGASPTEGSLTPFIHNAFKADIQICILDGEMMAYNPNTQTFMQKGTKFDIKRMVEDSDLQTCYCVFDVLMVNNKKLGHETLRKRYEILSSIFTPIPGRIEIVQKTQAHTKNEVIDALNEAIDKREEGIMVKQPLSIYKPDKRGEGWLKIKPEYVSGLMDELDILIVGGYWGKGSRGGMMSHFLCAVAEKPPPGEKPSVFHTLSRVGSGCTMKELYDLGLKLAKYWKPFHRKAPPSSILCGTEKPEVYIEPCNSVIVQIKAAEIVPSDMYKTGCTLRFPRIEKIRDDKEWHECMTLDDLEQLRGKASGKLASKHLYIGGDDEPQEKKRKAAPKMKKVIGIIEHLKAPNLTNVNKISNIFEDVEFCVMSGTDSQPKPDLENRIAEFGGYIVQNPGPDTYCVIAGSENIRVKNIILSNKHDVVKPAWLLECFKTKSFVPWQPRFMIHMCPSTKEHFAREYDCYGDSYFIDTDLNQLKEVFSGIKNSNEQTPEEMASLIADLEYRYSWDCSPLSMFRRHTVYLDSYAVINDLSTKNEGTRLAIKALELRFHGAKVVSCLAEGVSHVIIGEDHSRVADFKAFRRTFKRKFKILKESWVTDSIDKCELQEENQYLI
T1 sequence (Q13426 whole entry partner): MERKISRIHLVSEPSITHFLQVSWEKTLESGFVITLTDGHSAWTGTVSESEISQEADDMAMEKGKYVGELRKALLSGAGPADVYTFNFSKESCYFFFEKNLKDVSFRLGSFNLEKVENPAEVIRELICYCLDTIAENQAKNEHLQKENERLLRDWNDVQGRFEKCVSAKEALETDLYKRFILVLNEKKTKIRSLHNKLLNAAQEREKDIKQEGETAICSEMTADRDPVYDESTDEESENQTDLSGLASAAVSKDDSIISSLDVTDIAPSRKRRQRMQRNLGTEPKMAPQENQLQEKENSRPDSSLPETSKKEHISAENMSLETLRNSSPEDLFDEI

Inhibition of end joining compared with control (DNA Ligase IV/XRCC4) | Compound | IC50 (Nalm6) [µM] | IC50 (HeLa) [µM] | Inhibition of end joining (no joined product observed) (rat testicular extracts) | Effect in KO in absence of Ligase IV [1]
– | Nc1nc(S)nc(O)c1/N=C/c1cccs1 [Compound 01, (E)-6-amino-2-mercapto-5-((thiophen-2-ylmethylene)amino)pyrimidin-4-ol] | 23.3 | 17.7 | – | –
– | Nc1nc(S)nc(O)c1/N=C/c1ncc[nH]1 [Compound 04, (E)-5-(((1H-imidazol-2-yl)methylene)amino)-6-amino-2-mercaptopyrimidin-4-ol] | 29.7 | 95 | – | –
– | Nc1nc(S)nc(O)c1/N=C/c1cncc2ccccc12 [Compound 05, 6-amino-5-{[(E)-isoquinolin-4-ylmethylidene]amino}-2-mercaptopyrimidin-4-ol] | 18.2 | 11.9 | – | –
– | Nc1nc(S)nc(O)c1/N=C/c1ccccc1O [Compound 06, (E)-6-amino-5-((2-hydroxybenzylidene)amino)-2-mercaptopyrimidin-4-ol] | 19.4 | 17.5 | showed inhibition of end joining | –
– | Nc1nc(S)nc(O)c1/N=C/c1cccnc1 [Compound 07, (E)-6-amino-2-mercapto-5-((pyridin-3-ylmethylene)amino)pyrimidin-4-ol] | 26.6 | 28.2 | – | –
significant inhibition of end joining | Nc1nc(S)nc(O)c1/N=C/c1ccc[nH]1 [Compound 12, (E)-5-(((1H-pyrrol-2-yl)methylene)amino)-6-amino-2-mercaptopyrimidin-4-ol] | 29.5 | 48.5 | showed inhibition of end joining | –
– | Nc1nc(S)nc(O)c1/N=C/c1nccs1 [Compound 13, (E)-6-amino-2-mercapto-5-((thiazol-2-ylmethylene)amino)pyrimidin-4-ol] | 25.6 | 133 | – | –
significant inhibition of end joining | CC(=O)OCc1ccc(/C=N/c2c(N)nc(S)nc2O)o1 [Compound 15, (E)-(5-(((4-amino-6-hydroxy-2-mercaptopyrimidin-5-yl)imino)methyl)furan-2-yl)methylacetate] | 29.8 | 79.8 | showed inhibition of end joining | –
– | Nc1nc(S)nc(O)c1/N=C/c1cccc2ccccc12 [Compound 17, (E)-6-amino-2-mercapto-5-((naphthalen-1-ylmethylene)amino)pyrimidin-4-ol] | 29.7 | 29.5 | – | –
– | Nc1nc(S)nc(O)c1/N=C/c1ccnc(Cl)c1 [Compound 31, (E)-6-amino-5-(((2-chloropyridin-4-yl)methylene)amino)-2-mercaptopyrimidin-4-ol] | 4.04 | 6.95 | showed inhibition of end joining | –
– | Nc1nc(S)nc(O)c1/N=C/c1ccncc1F [Compound 33, (E)-6-amino-5-(((3-fluoropyridin-4-yl)methylene)amino)-2-mercaptopyrimidin-4-ol] | 2.24 | 20.8 | – | –
– | N#Cc1ccc(/C=N/c2c(N)nc(S)nc2O)s1 [Compound 34, (E)-5-(((4-amino-6-hydroxy-2-mercaptopyrimidin-5-yl)imino)methyl)thiophene-2-carbonitrile] | 0.95 | 41.4 | – | –
– | Nc1nc(S)nc(O)c1/N=C/c1ccc(Br)s1 [Compound 35, (E)-6-amino-5-(((5-bromothiophen-2-yl)methylene)amino)-2-mercaptopyrimidin-4-ol] | 6.87 | 18.4 | – | –
– | N#Cc1ccc(/C=N/c2c(N)nc(S)nc2O)cc1 [Compound 36, (E)-4-(((4-amino-6-hydroxy-2-mercaptopyrimidin-5yl)imino)methyl)benzonitrile] | 2.88 | 27.2 | – | –
– | CN(C)c1ccc(/C=N/c2c(N)nc(S)nc2O)cc1 [Compound 37, (E)-6-amino-5-((4-(dimethylamino)benzylidene)amino)-2-mercaptopyrimidin-4-ol] | 15.2 | 47.8 | – | –
– | Nc1nc(S)nc(O)c1/N=C/c1ccc2ccccc2n1 [Compound 38, (E)-6-amino-2-mercapto-5-((quinolin-2-ylmethylene)amino)pyrimidin-4-ol] | 25.5 | 45.8 | – | –
– | COc1cc(/C=N/c2c(N)nc(S)nc2O)ccc1O [Compound 39, (E)-6-amino-5-((4-hydroxy-3-methoxybenzylidene)amino)-2-mercaptopyrimidin-4-ol] | 33.6 | 43.2 | – | –
– | Nc1nc(S)nc(O)c1/N=C/c1cc(Br)ccc1O [Compound 40, (E)-6-amino-5-((5-bromo-2-hydroxybenzylidene)amino)-2-mercaptopyrimidin-4-ol] | 12.6 | 18.3 | showed inhibition of end joining | –
– | Nc1nc(S)nc(O)c1/N=C/c1cc(F)c(O)c(F)c1 [Compound 41, (E)-6-amino-5-((3,5-difluoro-4-hydroxybenzylidene)amino)-2-mercaptopyrimidin-4-ol] | 28.8 | 29.2 | – | –
– | O=c1[nH]c(=S)[nH]c2nc(-c3ccccc3)c(-c3ccccc3)nc12 [SCR7-pyrazine] | – | – | – | nonspecific effects

From US20250100977A1, “MERCAPTOPYRIMIDINE COMPOUNDS THAT INHIBIT NONHOMOLOGOUS END JOINING AND METHODS THEREOF” (INDIAN INSTITUTE OF SCIENCE, priority 2021, published 2025)
